In US4567178A, “Substituted 5,11-dihydro-6H-dibenz[b,e]azepin-6-ones and pharmaceutical compositions containing same” (Dr. Karl Thomae GmbH, priority 1984, dated 1986):

What was measured:
[1] = target: muscarinic receptors (cerebral cortex); assay: Muscarinic receptor binding (inhibition of specific 3H-N-methylscopolamine binding), cerebral cortex; design: species or system rat (male Sprague-Dawley); settings: rat cerebral cortex homogenate 1:3000, 3H-NMS, 30° C., 45 minutes; read-out: Receptor Binding Tests IC50, Cortex
Description: (§1) Determination of the IC50 value
(§2) The organ donors were male Sprague-Dawley rats weighing from 180 to 220 gm. After the removal of the stomach and cerebral cortex, all the other steps were carried out in ice-cold HepesHCl buffer (pH 7.4:100 m molar NaCl, 10 m molr MgCl2). Smooth muscle of the fundic section of the stomach was separated from the gastric mucosa and subjected to preliminary homogenization. All the organs were then homogenized in a potter apparatus.
(§3) For the binding test, the homogenized organ preparations were diluted as follows:
The homogenized organ preparations were incubated in an Eppendorf centrifugal tube at 30° C. with a specific concentration of the radioligand and a concentration series of the non-radioactive test substances. The period of incubation was 45 minutes. 0.3N molar ^3 H-N-methylscopolamine (^3 H-NMS) was used as the radioligand. After the incubation had been stopped by centrifuging at 14,000 g, the radioactivity in the pellet was determined. It represents the sum of specific and non-specific binding of ^3 H-NMS. The proportion of non-specific binding was defined as the radioactivity which was bound in the presence of 1μ molar quinuclidinyl benzylate. Four measurements were taken in each case. The IC50 values of the non-labelled test substances were determined graphically. […]

[2] = target: T1, muscarinic receptors (smooth muscle from fundus of stomach) (Rattus norvegicus, UniProt P10980); assay: Muscarinic receptor binding (inhibition of specific 3H-N-methylscopolamine binding), smooth muscle from fundus of stomach; design: species or system rat (male Sprague-Dawley)
T1 construct: Smooth muscle of the fundic section of the stomach was separated from the gastric mucosa; from tissue; host or cells: fundic smooth muscle homogenate of the stomach of male Sprague-Dawley rats
T1 sequence (P10980 1-466): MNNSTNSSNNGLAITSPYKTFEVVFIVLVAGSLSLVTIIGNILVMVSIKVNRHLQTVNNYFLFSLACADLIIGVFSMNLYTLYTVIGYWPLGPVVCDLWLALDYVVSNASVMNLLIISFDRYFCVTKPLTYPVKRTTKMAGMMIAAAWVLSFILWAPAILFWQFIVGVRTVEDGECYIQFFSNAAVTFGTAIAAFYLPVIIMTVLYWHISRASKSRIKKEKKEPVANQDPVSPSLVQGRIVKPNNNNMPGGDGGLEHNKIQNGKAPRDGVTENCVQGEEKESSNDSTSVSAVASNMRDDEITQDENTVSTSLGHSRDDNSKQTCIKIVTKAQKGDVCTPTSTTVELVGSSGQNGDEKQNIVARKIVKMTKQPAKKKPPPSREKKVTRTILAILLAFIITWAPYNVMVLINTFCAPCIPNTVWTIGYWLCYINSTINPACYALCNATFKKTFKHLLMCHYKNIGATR
Description: as §1, §2, §3
Smooth muscle from the funding of the stomach: 1:100.
The homogenized organ preparations were incubated in an Eppendorf centrifugal tube at 30° C. with a specific concentration of the radioligand and a concentration series of the non-radioactive test substances. The period of incubation was 45 minutes. 0.3N molar ^3 H-N-methylscopolamine (^3 H-NMS) was used as the radioligand. After the incubation had been stopped by centrifuging at 14,000 g, the radioactivity in the pellet was determined. It represents the sum of specific and non-specific binding of ^3 H-NMS. The proportion of non-specific binding was defined as the radioactivity which was bound in the presence of 1μ molar quinuclidinyl benzylate. Four measurements were taken in each case. The IC50 values of the non-labelled test substances were determined graphically. They represent the concentration of test substance at which the specific binding of ^3 H-NMS to the muscarinic receptors in the various organs was inhibited by 50%.

[3] = system: oxotremorine-induced secretion of saliva; assay: Oxotremorine test: inhibition of oxotremorine-induced salivation; format: in vivo, rat (Crl:COBS-CD(SD) BR, female albino); settings: Rattus norvegicus, iv, read-out: Oxotremorine Tests: Inhibition of Salivation ED50
Description: Oxotremorine, a specific agonist at muscarinic receptors, produces lesions of the gastric mucosa in rats and increases the secretion of saliva. This test model was chosen to be able to determine any selective activity of an antimuscarinic substance on the stomach.
Ten female albino rats (of the Crl:COBS-CD(SD) BR strain) with a body weight of from 120 to 150 gm were used for each treatment group. These rats were given free access to drinking water but were deprived of food for 24 hours before the start of the test.
To determine, in preliminary tests, the muscarinic effect of oxotremorine on each of the symptoms investigated, a dosage-activity curve was plotted with at least three doses for each symptom.
When testing antimuscarinic substances, the oxotremorine dosage used was the dosage which triggered the symptom to be influenced in 90 to 100% of the animals in the preliminary tests.
Secretion of saliva: 0.083 mg/kg i.v.
Each antimuscarinic substance was administered in uniformly graduated dosages by intravenous route 15 minutes before the administration of oxotremorine. Control groups were given the solvent and suspension agent in corresponding amounts instead of the test substance.
The results were expressed as the percentage inhibition of the oxotremorine effect (percentage of the animals without the symptom in question). The ED50 values were determined using the method of LITCHFIELD and WILCOXON (J. Pharmacol. Exp. Ther. 96, 99, 1949).

[4] = Mydriasis (effect on pupil size); settings: rat, in vivo, iv, pupil size observed for ten minutes
Description: The effect of the test substances on the pupil size in rats was investigated as follows:
The substances were administered intravenously to groups of ten animals in at least three uniformly graduated dosages. The pupil size was then observed for ten minutes to see if there were any changes (the occurrence of mydriasis or miosis), and the test was carried out blind, i.e., the investigator was not aware of the preliminary treatment received by the animals. The percentage of test animals in which mydriasis occurred was determined. The ED50 values were again determined according to LITCHFIELD and WILCOXON (see above).

| SMILES | IC50 [1] | IC50 [2] | ED50 [3] | ED50 at 10 min [4] |
| --- | --- | --- | --- | --- |
| CN1CCC(CC(=O)C2c3ccccc3NC(=O)c3ccccc32)CC1 (centres unmarked) [B, 5,11-Dihydro-11-[(1-methyl-4-piperidinyl)-acetyl]-6H-dibenz[b,e]azepin-6-one] | 25 nM | 150 nM | 0.186 mg/kg | 0.179 mg/kg |
| CN1CCC(NC(=O)C2c3ccccc3NC(=O)c3ccccc32)CC1 (centres unmarked) [A, 5,11-Dihydro-11-[[(1-methyl-4-piperidinyl)-amino]-carbonyl]-6H-dibenz[b,e]azepin-6-one] | 40 nM | 700 nM | 0.19 mg/kg | 0.075 mg/kg |
| CN1CCN(CC(=O)C2c3ccccc3NC(=O)c3ccccc32)CC1 (centres unmarked) [C, 5,11-Dihydro-[(4-methyl-1-piperazinyl)-acetyl]-6H-dibenz[b,e]azepin-6-one] |  | 400 nM | 0.335 mg/kg | 0.161 mg/kg |
